Measured values reported in patent publication US8742138B2, “Compounds as hypoxia mimetics, and compositions and uses thereof” (Betta Pharmaceuticals Co., Ltd., priority 2009, dated 2014).

Target: HIF-PHD2 (Homo sapiens (Human), UniProt Q9GZT9)
Test: Assay of HIF-PHD2 Enzyme Activity (TR-FRET)
Assay type: biochemical
Settings: 600 nM full length PHD2, 0.2 μM 2-oxoglutarate, 0.5 μM HIF-1α peptide
Protocol: HIF-PHD2 activity was measured using homogeneous TR-FRET technology (see also, US2008/004817; Dao J H et al., Anal Biochem. 2009, 384:213-23). To each well of a ½Area 96-well plate was added 2 μL of test compound in DMSO and 40 μL of assay buffer (50 mM Tris PH7.4/0.01% Tween-20/0.1 mg/ml BSA/1 mM Sodium ascorbate/20 μg/ml Catalase/10 μM FeSO4) containing 600 nM full length PHD2. After a 30 min preincubation at room temperature, the enzymatic reactions were initiated by the addition of 8 μL of substrates (final concentrations of 0.2 μM 2-oxoglutarate and 0.5 μM HIF-1α peptide biotinyl-[…]). After 2 hr at room temperature, the reactions were terminated and signals were developed by the addition of a 50 μL quench/detection mix to a final concentration of 1 mM ortho-phenanthroline, 0.1 mM EDTA, 0.5 nM anti-(His)6LANCE reagent, 100 nM AF647-labeled Streptavidin, and 30 nM (His)6-VHL-elonginB-elonginC complex. The ratio of time resolved fluorescence signals at 665 and 620 nm was determined, and percent inhibition was calculated relative to an uninhibited control sample run in parallel.

HIF-PHD2, sequence (Q9GZT9 whole entry): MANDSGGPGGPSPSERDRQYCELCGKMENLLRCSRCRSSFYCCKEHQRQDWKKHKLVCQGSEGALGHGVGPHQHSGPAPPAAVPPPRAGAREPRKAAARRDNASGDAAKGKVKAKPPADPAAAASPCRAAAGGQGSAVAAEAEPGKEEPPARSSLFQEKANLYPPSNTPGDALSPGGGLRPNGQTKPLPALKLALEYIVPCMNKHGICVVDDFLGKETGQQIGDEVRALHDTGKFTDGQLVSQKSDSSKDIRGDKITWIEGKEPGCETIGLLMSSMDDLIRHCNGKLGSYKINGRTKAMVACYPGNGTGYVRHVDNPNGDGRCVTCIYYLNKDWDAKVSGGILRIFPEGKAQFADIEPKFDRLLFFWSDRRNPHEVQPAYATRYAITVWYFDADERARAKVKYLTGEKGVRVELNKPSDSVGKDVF

| IC50 | Compound |
| --- | --- |
| 0.25 µM | O=C(O)CNC(=O)c1c(O)c2ccc(-c3ccccc3)cc2oc1=O [Example 1, N-[(4-hydroxy-2-oxo-7-phenyl-2H-3-chromenyl)carbonyl]glycine] |
| 0.15 µM | O=C(O)CNC(=O)c1c(O)c2ccc(-c3ccccc3Cl)cc2oc1=O [Example 2, N-[(4-hydroxy-2-oxo-7-(2-chloro-phenyl)-2H-3-chromenyl)carbonyl]glycine] |
| 0.15 µM | O=C(O)CNC(=O)c1c(O)c2ccc(-c3cccc(Cl)c3)cc2oc1=O [Example 3, N-[(4-hydroxy-2-oxo-7-(3-chloro-phenyl)-2H-3-chromenyl)carbonyl]glycine] |
| 0.15 µM | O=C(O)CNC(=O)c1c(O)c2ccc(-c3ccc(Cl)cc3)cc2oc1=O [Example 4, N-[(4-hydroxy-2-oxo-7-(4-chloro-phenyl)-2H-3-chromenyl)carbonyl]glycine] |
| 0.15 µM | O=C(O)CNC(=O)c1c(O)c2ccc(-c3cccc(C(F)(F)F)c3)cc2oc1=O [Example 5, N-[(4-hydroxy-2-oxo-7-(3-trifluoromethyl-phenyl)-2H-3-chromenyl)carbonyl]glycine] |
| 0.15 µM | O=C(O)CNC(=O)c1c(O)c2ccc(-c3ccc(C(F)(F)F)cc3)cc2oc1=O [Example 6, N-[(4-hydroxy-2-oxo-7-(4-trifluoromethyl-phenyl)-2H-3-chromenyl)carbonyl]glycine] |
| 0.15 µM | O=C(O)CNC(=O)c1c(O)c2ccc(-c3cccc(OC(F)(F)F)c3)cc2oc1=O [Example 7, N-[(4-hydroxy-2-oxo-7-(3-trifluoromethoxy-phenyl)-2H-3-chromenyl)carbonyl]glycine] |
| 0.15 µM | O=C(O)CNC(=O)c1c(O)c2ccc(-c3ccc(OC(F)(F)F)cc3)cc2oc1=O [Example 8, N-[(4-hydroxy-2-oxo-7-(4-trifluoromethoxy-phenyl)-2H-3-chromenyl)carbonyl]glycine] |
| 0.15 µM | O=C(O)CNC(=O)c1c(O)c2ccc(-c3ccc(Cl)c(Cl)c3)cc2oc1=O [Example 9, N-[(4-hydroxy-2-oxo-7-(3,4-dichloro-phenyl)-2H-3-chromenyl)carbonyl]glycine] |
| 0.15 µM | O=C(O)CNC(=O)c1c(O)c2ccc(-c3ccc(F)c(F)c3)cc2oc1=O [Example 10, N-[(4-hydroxy-2-oxo-7-(3,4-difluoro-phenyl)-2H-3-chromenyl)carbonyl]glycine] |
| 0.15 µM | O=C(O)CNC(=O)c1c(O)c2ccc(-c3cc(F)c(F)c(F)c3)cc2oc1=O [Example 11, N-[(4-hydroxy-2-oxo-7-(3,4,5-trifluoro-phenyl)-2H-3-chromenyl)carbonyl]glycine] |
| 0.15 µM | COc1cccc(-c2ccc3c(O)c(C(=O)NCC(=O)O)c(=O)oc3c2)c1 [Example 12, N-[(4-hydroxy-2-oxo-7-(3-methoxy-phenyl)-2H-3-chromenyl)carbonyl]glycine] |
| 0.15 µM | COc1ccc(-c2ccc3c(O)c(C(=O)NCC(=O)O)c(=O)oc3c2)cc1 [Example 13, N-[(4-hydroxy-2-oxo-7-(4-methoxy-phenyl)-2H-3-chromenyl)carbonyl]glycine] |
| 0.3 µM | Cc1cccc(-c2ccc3c(O)c(C(=O)NCC(=O)O)c(=O)oc3c2)c1 [Example 14, N-[(4-hydroxy-2-oxo-7-(3-methylphenyl)-2H-3-chromenyl)carbonyl]glycine] |
| 0.15 µM | Cc1ccc(-c2ccc3c(O)c(C(=O)NCC(=O)O)c(=O)oc3c2)cc1 [Example 15, N-[(4-hydroxy-2-oxo-7-(4-methylphenyl)-2H-3-chromenyl)carbonyl]glycine] |
| 0.35 µM | O=C(O)CNC(=O)c1c(O)c2cccc(-c3ccccc3)c2oc1=O [Example 16, N-[(4-hydroxy-2-oxo-8-phenyl-2H-3-chromenyl)carbonyl]glycine] |
| 0.2 µM | O=C(O)CNC(=O)c1c(O)c2cccc(-c3ccccc3Cl)c2oc1=O [Example 17, N-[(4-hydroxy-2-oxo-8-(2-chlorophenyl)-2H-3-chromenyl)carbonyl]glycine] |
| 0.09 µM | O=C(O)CNC(=O)c1c(O)c2cccc(-c3cccc(Cl)c3)c2oc1=O [Example 18, N-[(4-hydroxy-2-oxo-8-(3-chlorophenyl)-2H-3-chromenyl)carbonyl]glycine] |

| IC50 | Compound |
| --- | --- |
| 0.15 µM | O=C(O)CNC(=O)c1c(O)c2cccc(-c3ccc(Cl)cc3)c2oc1=O [Example 19, N-[(4-hydroxy-2-oxo-8-(4-chlorophenyl)-2H-3-chromenyl)carbonyl]glycine] |
| 0.1 µM | O=C(O)CNC(=O)c1c(O)c2cccc(-c3cccc(C(F)(F)F)c3)c2oc1=O [Example 20, N-[(4-hydroxy-2-oxo-8-(3-trifluoromethylphenyl)-2H-3-chromenyl)carbonyl]glycine] |
| 0.09 µM | O=C(O)CNC(=O)c1c(O)c2cccc(-c3ccc(C(F)(F)F)cc3)c2oc1=O [Example 21, N-[(4-hydroxy-2-oxo-8-(4-trifluoromethylphenyl)-2H-3-chromenyl)carbonyl]glycine] |
| 0.1 µM | O=C(O)CNC(=O)c1c(O)c2cccc(-c3cccc(OC(F)(F)F)c3)c2oc1=O [Example 22, N-[(4-hydroxy-2-oxo-8-(3-trifluoromethoxyphenyl)-2H-3-chromenyl)carbonyl]glycine] |
| 0.15 µM | O=C(O)CNC(=O)c1c(O)c2cccc(-c3ccc(OC(F)(F)F)cc3)c2oc1=O [Example 23, N-[(4-hydroxy-2-oxo-8-(4-trifluoromethoxyphenyl)-2H-3-chromenyl)carbonyl]glycine] |
| 0.03 µM | O=C(O)CNC(=O)c1c(O)c2cccc(-c3ccc(Cl)c(Cl)c3)c2oc1=O [Example 24, N-[(4-hydroxy-2-oxo-8-(3,4-dichlorophenyl)-2H-3-chromenyl)carbonyl]glycine] |
| 0.15 µM | O=C(O)CNC(=O)c1c(O)c2cccc(-c3ccc(F)c(F)c3)c2oc1=O [Example 25, N-[(4-hydroxy-2-oxo-8-(3,4-difluorophenyl)-2H-3-chromenyl)carbonyl]glycine] |
| 0.15 µM | O=C(O)CNC(=O)c1c(O)c2cccc(-c3cc(F)c(F)c(F)c3)c2oc1=O [Example 26, N-[(4-hydroxy-2-oxo-8-(3,4,5-trifluorophenyl)-2H-3-chromenyl)carbonyl]glycine] |
| 0.15 µM | COc1cccc(-c2cccc3c(O)c(C(=O)NCC(=O)O)c(=O)oc23)c1 [Example 27, N-[(4-hydroxy-2-oxo-8-(3-methoxyphenyl)-2H-3-chromenyl)carbonyl]glycine] |
| 0.08 µM | COc1ccc(-c2cccc3c(O)c(C(=O)NCC(=O)O)c(=O)oc23)cc1 [Example 28, N-[(4-hydroxy-2-oxo-8-(4-methoxyphenyl)-2H-3-chromenyl)carbonyl]glycine] |
| 0.15 µM | Cc1cccc(-c2cccc3c(O)c(C(=O)NCC(=O)O)c(=O)oc23)c1 [Example 29, N-[(4-hydroxy-2-oxo-8-(3-methylphenyl)-2H-3-chromenyl)carbonyl]glycine] |
| 0.08 µM | Cc1ccc(-c2cccc3c(O)c(C(=O)NCC(=O)O)c(=O)oc23)cc1 [Example 30, N-[(4-hydroxy-2-oxo-8-(4-methylphenyl)-2H-3-chromenyl)carbonyl]glycine] |
| 0.2 µM | O=C(O)CNC(=O)c1c(O)c2ccc(-c3cccnc3)cc2oc1=O [Example 33, N-[(4-hydroxy-2-oxo-7-(pyridin-3-yl)-2H-3-chromenyl)carbonyl]glycine] |
| 0.15 µM | O=C(O)CNC(=O)c1c(O)c2ccc(Oc3ccccc3)cc2oc1=O [Example 34, N-[(4-hydroxy-2-oxo-7-phenoxy-2H-3-chromenyl)carbonyl]glycine] |
| 0.15 µM | O=C(O)CNC(=O)c1c(O)c2ccc(Br)cc2oc1=O [Example 35, N-[(4-hydroxy-2-oxo-7-bromo-3-chromenyl)carbonyl]glycine] |
| 0.3 µM | O=C(O)CNC(=O)c1c(O)c2cccc(Br)c2oc1=O [Example 36, N-[(4-hydroxy-2-oxo-8-bromo-3-chromenyl)carbonyl]glycine] |
| 0.7 µM | O=C(O)CNC(=O)c1c(O)c2cc(Br)ccc2oc1=O [Example 37, N-[(4-hydroxy-2-oxo-6-bromo-3-chromenyl)carbonyl]glycine] |
